Experimental findings from patent US9738902B2, “Modified PYR/PYL receptors activated by ligands” (priority 2013, dated 2017) are described below.

The structures appear in SMILES notation.

For this experiment, the system named is transgenic 35S::PYR1^MANDI tomato plants. Briefly: thermal imaging of leaf temperature. The experiment is classed as in vivo. The conditions noted are these: 10 μM mandipropamid, 24 hours post treatment. The text has this: The core ABA response pathway is highly conserved and it is therefore expected that PYR1^MANDI should be able to activate ABA responses in response to mandipropamid in most land plants. To investigate if the physiological activity of PYR1^MANDI is functional in other species besides Arabidopsis we made transgenic 35S::PYR1^MANDI tomato. The same construct utilized for construction of Arabidopsis transgenics (described in Example 5) was modified to contain a kanamycin selection marker. Tomato was transformed by Agrobacterium-mediated transformation, which was conducted as described by Sun et al. (2006) with a few modifications. Surface sterilized tomato seeds (strain UC82B) were germinated on sterilized wet filter paper in a petridish. Cotyledons from 7-day old seedlings were excised and dipped into a suspension of Agrobacterium in MS medium containing 100 μM acetosyringone and 10 μM 2-mercaptoethanol for 10 minutes. Explants were then placed on co-cultivation medium containing MS salts, 3% sucrose, 0.3% Gelite and 1.5 mg/L zeatin. After 3 days of co-culture in darkness, the explants were transferred onto callus induction medium containing MS salts, 3% sucrose, 0.3% Gelite, 1.5 mg/L zeatin and 100 mg/L kanamycin and 125 mg/L carbenicillin. Explants were transferred to freshly prepared medium every 2 weeks. […]

As to `C#CCOc1ccc(CCNC(=O)C(OCC#C)c2ccc(Cl)cc2)cc1OC` (stereo not shown) [Mandipropamid, mandipropamid], the leaf temperature result is “increase in leaf temperature”.
